According to ChEMBL document CHEMBL1123973, “Renin inhibitors containing hydrophilic groups. Tetrapeptides with enhanced aqueous solubility and nanomolar potency” (J Med Chem, 1988):

Tests used:
[1] = buffer, pH 7.4
Description: Solubility (phosphate buffer, pH 7.4)

[2] = test system: Canis familiaris; assay: Change in mean blood pressure (MBP) in dog 1 after oral administration after a period of 45 min; assay type: functional, Canis lupus familiaris
[3] = test system: Canis familiaris; assay: Change in mean blood pressure (MBP) in dog 1 after oral administration after a period of 180 min; assay type: functional, Canis lupus familiaris
[4] = test system: Canis familiaris; assay: Change in mean blood pressure (MBP) in dog 2 after oral administration after a period of 90 min; assay type: functional, Canis lupus familiaris
[5] = test system: Canis familiaris; assay: Change in mean blood pressure (MBP) in dog 1 after oral administration after a period of 60 min; assay type: functional, Canis lupus familiaris
[6] = test system: Canis familiaris; assay: Change in mean blood pressure (MBP) in dog 2 after oral administration after a period of 30 min; assay type: functional, Canis lupus familiaris
[7] = test system: Canis familiaris; assay: Change in mean blood pressure (MBP) in dog 3 after oral administration after a period of 75 min; assay type: functional, Canis lupus familiaris
[8] = test system: Canis familiaris; assay: Change in mean blood pressure (MBP) in dog 1 after oral administration after a period of 90 min; assay type: functional, Canis lupus familiaris
[9] = test system: Canis familiaris; assay: Change in mean blood pressure (MBP) in dog 1 after oral administration after a period of 10 min; assay type: functional, Canis lupus familiaris
[10] = test system: Canis familiaris; assay: Change in mean blood pressure (MBP) in dog 2 after oral administration after a period of 45 min; assay type: functional, Canis lupus familiaris
[11] = test system: Canis familiaris; assay: Change in mean blood pressure (MBP) in dog 3 after oral administration after a period of 45 min; assay type: functional, Canis lupus familiaris
[12] = test system: Canis familiaris; assay: Change in mean blood pressure (MBP) in dog 1 after oral administration after a period of 300 min; assay type: functional, Canis lupus familiaris
[13] = test system: Canis familiaris; assay: Change in mean blood pressure (MBP) in dog 1 after oral administration after a period of 150 min; assay type: functional, Canis lupus familiaris
[14] = test system: Canis familiaris; assay: Change in mean blood pressure (MBP) in dog 2 after oral administration after a period of 75 min; assay type: functional, Canis lupus familiaris
[15] = test system: Canis familiaris; assay: Change in mean blood pressure (MBP) in dog 1 after oral administration after a period of 240 min; assay type: functional, Canis lupus familiaris
[16] = test system: Canis familiaris; assay: Change in mean blood pressure (MBP) in dog 2 after oral administration after a period of 120 min; assay type: functional, Canis lupus familiaris
[17] = test system: Canis familiaris; assay: Change in mean blood pressure (MBP) in dog 3 after oral administration after a period of 15 min; assay type: functional, Canis lupus familiaris
[18] = test system: Canis familiaris; assay: Change in mean blood pressure (MBP) in dog 3 after oral administration after a period of 60 min; assay type: functional, Canis lupus familiaris
[19] = test system: Canis familiaris; assay: Change in mean blood pressure (MBP) in dog 3 after oral administration after a period of 90 min; assay type: functional, Canis lupus familiaris
[20] = test system: Canis familiaris; assay: Change in mean blood pressure (MBP) in dog 1 after oral administration after a period of 120 min; assay type: functional, Canis lupus familiaris
[21] = test system: Canis familiaris; assay: Change in mean blood pressure (MBP) in dog 1 after oral administration after a period of 30 min; assay type: functional, Canis lupus familiaris
[22] = test system: Canis familiaris; assay: Change in mean blood pressure (MBP) in dog 3 after oral administration after a period of 180 min; assay type: functional, Canis lupus familiaris
[23] = test system: Canis familiaris; assay: Change in mean blood pressure (MBP) in dog 1 after oral administration after a period of 75 min; assay type: functional, Canis lupus familiaris
[24] = test system: Canis familiaris; assay: Change in mean blood pressure (MBP) in dog 2 after oral administration after a period of 240 min; assay type: functional, Canis lupus familiaris
[25] = test system: Canis familiaris; assay: Change in mean blood pressure (MBP) in dog 2 after oral administration after a period of 60 min; assay type: functional, Canis lupus familiaris
[26] = test system: Canis familiaris; assay: Change in mean blood pressure (MBP) in dog 2 after oral administration after a period of 15 min; assay type: functional, Canis lupus familiaris
[27] = test system: Canis familiaris; assay: Change in mean blood pressure (MBP) in dog 2 after oral administration after a period of 180 min; assay type: functional, Canis lupus familiaris
[28] = test system: Canis familiaris; assay: Change in mean blood pressure (MBP) in dog 3 after oral administration after a period of 300 min; assay type: functional, Canis lupus familiaris
[29] = test system: Canis familiaris; assay: Change in mean blood pressure (MBP) in dog 2 after oral administration after a period of 150 min; assay type: functional, Canis lupus familiaris
[30] = test system: Canis familiaris; assay: Change in mean blood pressure (MBP) in dog 3 after oral administration after a period of 240 min; assay type: functional, Canis lupus familiaris
[31] = test system: Canis familiaris; assay: Change in mean blood pressure (MBP) in dog 3 after oral administration after a period of 150 min; assay type: functional, Canis lupus familiaris
[32] = test system: Canis familiaris; assay: Change in mean blood pressure (MBP) in dog 3 after oral administration after a period of 120 min; assay type: functional, Canis lupus familiaris
[33] = test system: Canis familiaris; assay: Change in mean blood pressure (MBP) in dog 3 after oral administration after a period of 30 min; assay type: functional, Canis lupus familiaris
[34] = test system: Canis familiaris; assay: Change in mean blood pressure (MBP) in dog 2 after oral administration after a period of 300 min; assay type: functional, Canis lupus familiaris
[35] = test system: Canis familiaris; assay: Change in mean blood pressure (MBP) in dog 1 after oral administration after a period of 15 min; assay type: functional, Canis lupus familiaris
[36] = physchem; conditions: S
[37] = Partition coefficient (logD) (octanol/citric acid-phosphate buffer)
[38] = organism: Sus scrofa; assay: Concentration required for 50% inhibition of porcine kidney renin at 10e-7 nM concentration; assay type: functional
[39] = physchem; conditions: phosphate buffer, pH 7.4, S
Description: Solubility (phosphate buffer, pH 7.4)

Question: With `CC(C)CC(NC(=O)[C@H](Cc1c[nH]cn1)NC(=O)[C@H](Cc1ccccc1)NC(=O)OC(C)(C)C)C(O)CC(=O)N[C@@H](CC(C)C)C(=O)NCCC(N)C(=O)O` (stereo in doubt; 16) as the molecule, how does the S [1] read?
Answer: 6100 µM

Question: And the S?
Answer: 2300 µM

Question: Which MBP [2] does the source give for `CC(C)C[C@H](NC(=O)CC(O)C(CC1CCCCC1)NC(=O)[C@H](Cc1c[nH]cn1)NC(=O)[C@H](Cc1ccccc1)NC(=O)OC(C)(C)C)C(=O)NCc1cccc(CN)c1` (stereo not given in full) here?
Answer: -6 mmHg

Question: And the MBP [3]?
Answer: -13 mmHg

Question: And the MBP [4]?
Answer: -5 mmHg

Question: And the MBP [5]?
Answer: -4 mmHg

Question: What about the MBP [6] of the same molecule?
Answer: -3 mmHg

Question: What about the MBP [7] of the same molecule?
Answer: -9 mmHg

Question: What about the MBP [8] of the same molecule?
Answer: 1 mmHg

Question: What about the MBP [9] of the same molecule?
Answer: -12 mmHg

Question: And the MBP [10]?
Answer: -4 mmHg

Question: And the MBP [11]?
Answer: -7 mmHg

Question: And the MBP [12]?
Answer: -10 mmHg

Question: And the MBP [13]?
Answer: -1 mmHg

Question: And the MBP [14]?
Answer: 1 mmHg

Question: And the MBP [15]?
Answer: 1 mmHg

Question: And the MBP [16]?
Answer: -4 mmHg

Question: And the MBP [17]?
Answer: 1 mmHg

Question: And the MBP [18]?
Answer: -5 mmHg

Question: What about the MBP [19] of the same molecule?
Answer: -2 mmHg

Question: And the MBP [20]?
Answer: -2 mmHg

Question: And the MBP [21]?
Answer: -2 mmHg

Question: What about the MBP [22] of the same molecule?
Answer: -5 mmHg

Question: And the MBP [23]?
Answer: -7 mmHg

Question: And the MBP [24]?
Answer: -1 mmHg

Question: What about the MBP [25] of the same molecule?
Answer: 0 mmHg

Question: What about the MBP [26] of the same molecule?
Answer: -6 mmHg

Question: What about the MBP [27] of the same molecule?
Answer: -2 mmHg

Question: And the MBP [28]?
Answer: -3 mmHg

Question: What about the MBP [29] of the same molecule?
Answer: -3 mmHg

Question: And the MBP [30]?
Answer: -3 mmHg

Question: What about the MBP [31] of the same molecule?
Answer: -2 mmHg

Question: What about the MBP [32] of the same molecule?
Answer: 1 mmHg

Question: And the MBP [33]?
Answer: -6 mmHg

Question: What about the MBP [34] of the same molecule?
Answer: -1 mmHg

Question: What about the MBP [35] of the same molecule?
Answer: -18 mmHg

Question: For `CC(C)CC(NC(=O)[C@H](Cc1c[nH]cn1)NC(=O)[C@H](Cc1ccccc1)NC(=O)OC(C)(C)C)C(O)CC(=O)N[C@@H](CC(C)C)C(=O)NCCS(=O)(=O)O` (stereo not given in full), which solubility [36] is on record?
Answer: > 11 mM

Question: What about the logD [37] of the same molecule?
Answer: 0.633

Question: And the Inhibition [38]?
Answer: 0%

Question: What about the solubility [39] of the same molecule?
Answer: > 11 mM
